pIC50: −log10 of the molar value.

Chain of Human immunodeficiency virus type 1 integrase (Q7ZJM1 whole entry): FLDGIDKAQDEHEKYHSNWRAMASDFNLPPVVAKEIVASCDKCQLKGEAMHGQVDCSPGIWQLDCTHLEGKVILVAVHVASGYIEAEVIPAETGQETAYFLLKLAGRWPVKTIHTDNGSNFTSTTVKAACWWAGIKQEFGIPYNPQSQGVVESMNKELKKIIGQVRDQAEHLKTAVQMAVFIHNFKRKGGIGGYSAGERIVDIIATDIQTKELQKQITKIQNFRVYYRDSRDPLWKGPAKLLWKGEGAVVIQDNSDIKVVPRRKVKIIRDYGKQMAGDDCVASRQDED

This test concerns the target Human immunodeficiency virus type 1 integrase (Human immunodeficiency virus 1, UniProt Q7ZJM1). The experiment in a line: Inhibition of Human immunodeficiency virus 1 integrase.
In turn, `Cn1c(C(=O)/C=C(\O)C(=O)O)cc2cc3c(cc21)OCO3` showed a negative logarithm of the IC50 (pIC50) of 5.70. Molecule `O=c1oc2ccccc2c(O)c1C(c1ccc(OCc2ccccc2)c(OCc2ccccc2)c1)c1c(O)c2ccccc2oc1=O` had a pIC50 of 4.92.

For the molecule `O=c1oc2cc(O)ccc2c(O)c1C(c1ccccc1)c1c(O)c2ccc(O)cc2oc1=O`, the pIC50 was 4.65. For `CN(C)c1ccc(C(c2c(O)c3ccccc3oc2=O)c2c(O)c3ccccc3oc2=O)cc1` the value was 4.31; for `O=c1oc2cc(O)ccc2c(O)c1Cc1c(O)c2ccc(O)cc2oc1=O`, 4.35.

In turn, `O=c1oc2ccccc2c(O)c1C(c1ccc(-c2ccccc2)cc1)c1c(O)c2ccccc2oc1=O` had a pIC50 of 4.89. This pIC50 is 0.54 log units higher than that of the molecule before. In the case of `O=c1oc2ccccc2c(O)c1-c1ccccc1-c1c(O)c2ccccc2oc1=O` it was 4.69; in that of `O=c1oc2ccccc2c(O)c1C(c1cccs1)c1c(O)c2ccccc2oc1=O`, 3.83.

In turn, `O=c1oc2cc(O)ccc2c(O)c1C(c1ccc(C(c2c(O)c3ccc(O)cc3oc2=O)c2c(O)c3ccc(O)cc3oc2=O)cc1)c1c(O)c2ccc(O)cc2oc1=O` showed a negative logarithm of the IC50 (pIC50) of 5.52. In the case of `O=c1oc2ccccc2c(O)c1C(c1ccc2c(c1)CC=CC2)c1c(O)c2ccccc2oc1=O` it was 4.80; in that of `O=C(O)/C(O)=C/C(=O)c1cn(Cc2ccccc2)c2ccccc12`, 6.00; in that of `CCn1c(C(=O)/C=C(\O)C(=O)O)cc2ccccc21`, 5.80.

`CCn1c(C(=O)/C=C(\O)C(=O)O)cc2cc3c(cc21)OCO3`: the pIC50 is 5.30. Turning to `O=c1oc2ccccc2c(O)c1C(c1ccco1)c1c(O)c2ccccc2oc1=O`, the negative-log IC50 (pIC50) is 3.88. Take `O=c1oc2cc(O)ccc2c(O)c1C(c1ccc(CCc2ccccc2)cc1)c1c(O)c2ccc(O)cc2oc1=O`: the negative logarithm of the IC50 (pIC50) was 5.75. In the case of `O=c1oc2ccccc2c(O)c1C(c1cccc(C(c2c(O)c3ccccc3oc2=O)c2c(O)c3ccccc3oc2=O)c1)c1c(O)c2ccccc2oc1=O`, the negative logarithm of the IC50 (pIC50) was 5.92. In the case of `O=c1oc2ccccc2c(O)c1C(c1ccccc1)c1c(O)c2ccccc2oc1=O`, the negative logarithm of the IC50 (pIC50) was 4.42. This pIC50 lies 1.50 log units lower than the previous one. For `Cn1c(C(=O)/C=C(\O)C(=O)O)cc2ccccc21` the value was 5.22; for `O=c1oc2ccccc2c(O)c1C(c1ccc(O)cc1)c1c(O)c2ccccc2oc1=O`, 4.13; for `O=c1oc2ccccc2c(O)c1-c1cccc(-c2c(O)c3ccccc3oc2=O)c1`, 4.96. In the case of `CCn1cc(C(=O)/C=C(\O)C(=O)O)c2cc3c(cc21)OCO3` it was 5.52; in that of `O=c1oc2cc(O)ccc2c(O)c1C(c1ccc2c(c1)CC=CC2)c1c(O)c2ccc(O)cc2oc1=O`, 5.46. In the case of `O=c1oc2ccccc2c(O)c1C(c1cnc2c(c1)CC=CC2)c1c(O)c2ccccc2oc1=O` it was 4.64; in that of `O=C(O)/C(O)=C/C(=O)c1cc2ccccc2n1Cc1ccccc1`, 6.00.

Consider `O=c1oc2ccccc2c(O)c1Cc1ccc(Cc2c(O)c3ccccc3oc2=O)cc1`, for which the pIC50 is 4.16. For `Cn1cc(C(=O)/C=C(\O)C(=O)O)c2ccccc21` the value was 5.70; for `O=c1oc2cc(O)ccc2c(O)c1C(c1cccnc1)c1c(O)c2ccc(O)cc2oc1=O`, 4.60.

In the case of `O=C(O)/C(O)=C/C(=O)c1cc2cc3c(cc2n1Cc1ccccc1)OCO3`, the pIC50 was 5.70. For `Cn1cc(C(=O)/C=C(\O)C(=O)O)c2cc3c(cc21)OCO3`, the negative logarithm of the IC50 (pIC50) was 5.52. In the case of `CCn1cc(C(=O)/C=C(\O)C(=O)O)c2ccccc21` it was 5.52.

As a reminder, the pIC50 is the IC50 on a negative log10 scale, so that one unit is a factor of ten. Low values mean a large IC50, high ones a small IC50.

The record behind these values is ChEMBL document CHEMBL3045301, “Pharmacophore modeling of some novel indole -diketo acid and coumarin-based derivatives as HIV integrase inhibitors” (Med Chem Res, 2012).
